Data: paper PMC6109769, “Calmodulin Enhances Cryptochrome Binding to INAD in Drosophila Photoreceptors” (Frontiers in Molecular Neuroscience, 2018)

Tests used:
CaM [1] = molecular target: T1, CaM (Xenopus laevis, UniProt P0DP33); experiment: ITC titration of peptide into Ca2+-loaded CaM (5 mM CaCl2), single-curve fits; type: binding; conditions: calculated, T = 298 K
T1 construct: (His)6 (N); made in house; host or cells: Escherichia coli BL21
Protocol: (§1) Peptide titrations were performed at 25°C using a high-sensitivity VP-isothermal titration calorimetry (ITC) microcalorimeter (MicroCal LLC, Northampton, MA, USA). The reference cell was filled with deionized water. Protein and peptide solutions were prepared by diluting concentrated stock solutions in the reaction buffer (50 mM TrisHCl, pH 7.5, 150 mM NaCl, in the absence or in the presence of 5 mM CaCl2). Apo-protein and peptide solutions were devoid of Ca^2+ ions, as determined by inductively coupled plasma emission spectroscopy, as previously described (Merloni et al., [2014]). […]
(§2) Integrated heat data obtained for each titration were fitted using a nonlinear least-squares minimization algorithm to a theoretical titration curve, using AFFINImeter^2, using both the independent sites and the stoichiometric equilibria approach. ΔH (reaction enthalpy change, cal mol^−1) and Ka (binding constant, M^−1) were the thermodynamic fitting parameters. […] The reaction entropy was calculated using the relationships ΔG = −RTlnKa (R = 1.9872 cal mol^−1 K^−1, T = 298 K) and ΔG = ΔH − TΔS. […] The reliability of the obtained fits was evaluated using the Goodness of Fit (GoF) parameter.

CaM [2] = molecular target: T1, CaM; experiment: ITC global fit of single titrations and competition experiment (Scheme 5), 5 mM CaCl2; type: binding; conditions: calculated from global fit Scheme 5
Protocol: as §1, §2
The reaction was monitored using ITC. […]

CaM-dCRY complex = type: binding, Xenopus laevis; conditions: ITC, 5 mM CaCl2; INAD peptide 800 μM over CaM 40 μM + dCRY peptide 40 μM (1:1)
Protocol: Peptide titrations were performed at 25°C using a high-sensitivity VP-isothermal titration calorimetry (ITC) microcalorimeter (MicroCal LLC, Northampton, MA, USA). The reference cell was filled with deionized water. Protein and peptide solutions were prepared by diluting concentrated stock solutions in the reaction buffer (50 mM TrisHCl, pH 7.5, 150 mM NaCl, in the absence or in the presence of 5 mM CaCl2). Apo-protein and peptide solutions were devoid of Ca^2+ ions, as determined by inductively coupled plasma emission spectroscopy, as previously described (Merloni et al., [2014]). Each experiment started with a small injection of 1–2 μL, which was discarded from the analysis of the integrated data, in order to avoid artifacts due to the diffusion through the injection port occurring during the long equilibration period, locally affecting the protein concentration near the syringe needle tip. Care was taken to start the first addition after baseline stability had been achieved. […] To allow the system to reach equilibrium, a spacing of 300 s was applied between each ligand injection.
The reaction was monitored using ITC. […] A fit of the integrated heat data, however, is quite complex, as the binding curve represents the sum of the contributions of the multiple binding isotherms deriving from the different equilibria involved. […]

ΔS (INAD) (CaM [1]): −11.3 cal mol^−1 K^−1
ΔSINAD, global fit (CaM [2]): +4.42 cal mol^−1 K^−1
Structure (SMILES): CC[C@H](C)[C@H](NC(=O)[C@H](CCCCN)NC(=O)[C@H](C)NC(=O)[C@H](CCSC)NC(=O)[C@@H](NC(=O)[C@H](Cc1ccc(O)cc1)NC(=O)CNC(=O)[C@H](Cc1ccccc1)NC(C)=O)[C@@H](C)O)C(=O)N[C@@H](CC(N)=O)C(=O)N[C@@H](CCCCN)C(=O)N[C@@H](CCCNC(=N)N)C(=O)N[C@@H](Cc1ccc(O)cc1)C(=O)N[C@@H](CC(N)=O)C(=O)N[C@@H](CCSC)C(N)=O [INAD230–243]
heat of reaction on titration of INAD over CaM preincubated with dCRY (CaM-dCRY complex): absence of significant heat of reaction
